Experimental data published in ChEMBL document CHEMBL5620415, “Design, synthesis and anti-hepatic fibrosis activity of novel diphenyl vitamin D receptor agonists” (Eur J Med Chem, 2023).
The source made the active and inactive calls. The rule behind the calls is not given here.

How the values were obtained:
[1] = target: T1, Vitamin D3 receptor (Homo sapiens) (UniProt P11473); experiment: Binding affinity to human full-length Vitamin D receptor assessed as relative binding affinity at 1 uM incubated for 2 hrs by fluorescence polarization based competitive binding assay relative to calcipotriol
T1 sequence (whole entry): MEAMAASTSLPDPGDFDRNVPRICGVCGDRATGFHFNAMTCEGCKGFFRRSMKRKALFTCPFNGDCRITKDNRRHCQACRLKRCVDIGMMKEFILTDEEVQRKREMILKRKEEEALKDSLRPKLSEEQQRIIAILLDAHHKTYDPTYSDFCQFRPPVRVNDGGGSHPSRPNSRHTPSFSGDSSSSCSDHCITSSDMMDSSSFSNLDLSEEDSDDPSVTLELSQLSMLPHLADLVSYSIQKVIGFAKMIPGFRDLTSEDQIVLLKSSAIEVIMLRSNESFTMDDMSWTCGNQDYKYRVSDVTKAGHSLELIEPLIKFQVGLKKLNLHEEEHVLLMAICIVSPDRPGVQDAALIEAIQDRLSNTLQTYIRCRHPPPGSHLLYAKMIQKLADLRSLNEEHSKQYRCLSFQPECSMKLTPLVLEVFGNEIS

[2] = Cytotoxicity against human LX-2 cells by CCK-8 assay; type: toxicity, cell-based
[3] = target: T1, Vitamin D3 receptor (Homo sapiens); experiment: Agonist activity at Vitamin D receptor in human LX-2 cells assessed as transcriptional activity by measuring induction of CYP24A expression at 0.5 uM by RT-qPCR analysis relative to control; type: cell-based
[4] = tested on: Mus musculus; experiment: Anti-fibrotic effect in CCl4-induced hepatic fibrosis C57BL/6 mouse model assessed as inhibition of serum AST level at 500 ug/kg, po five times a week for 2 weeks; type: functional, organism-based; settings: dose 500.0 µg/kg
[5] = tested on: Mus musculus; experiment: Anti-fibrotic effect in improving CCl4-induced hepatic fibrosis C57BL/6 mouse model assessed as uniform liver parenchyma at 500 ug/kg, po five times a week for 2 weeks by qualitative ultrasound imaging analysis; type: functional, organism-based; settings: dose 500.0 µg/kg
[6] = tested on: Mus musculus; experiment: Anti-fibrotic effect in CCl4-induced hepatic fibrosis C57BL/6 mouse model assessed as reduction the lesions at 500 ug/kg, po five times a week for 2 weeks by Hematoxylin-Eosin (H&E) staining based assay; type: functional, organism-based; settings: dose 500.0 µg/kg
[7] = tested on: Mus musculus; experiment: Anti-fibrotic effect in CCl4-induced hepatic fibrosis C57BL/6 mouse model assessed as reduction the lesions at 500 ug/kg, po five times a week for 2 weeks by Masson's Trichrome staining based assay; type: functional, organism-based; settings: dose 500.0 µg/kg
[8] = tested on: Mus musculus; experiment: Anti-fibrotic effect in CCl4-induced hepatic fibrosis C57BL/6 mouse model assessed as reduction in hepatic fibrosis lesions at 500 ug/kg, po five times a week for 2 weeks by Hematoxylin-Eosin (H&E) staining based assay; type: functional, organism-based; settings: dose 500.0 µg/kg
[9] = tested on: Mus musculus; experiment: Anti-fibrotic effect in CCl4-induced hepatic fibrosis C57BL/6 mouse model assessed as inhibition of proliferation of fibrous tissue at 500 ug/kg, po five times a week for 2 weeks by Masson's Trichrome […] staining based assay; type: functional, organism-based; settings: dose 500.0 µg/kg
[10] = tested on: Mus musculus; experiment: Anti-fibrotic effect in improving CCl4-induced hepatic fibrosis C57BL/6 mouse model assessed as decrease in liver to kidney brightness ratio at 500 ug/kg, po five times a week for 2 weeks by qualitative ultrasound imaging analysis; type: functional, organism-based; settings: dose 500.0 µg/kg
[11] = tested on: Mus musculus; experiment: Anti-fibrotic effect in CCl4-induced hepatic fibrosis C57BL/6 mouse model assessed as inhibition of proliferation of fibrous tissue at 500 ug/kg, po five times a week for 2 weeks by Hematoxylin-Eosin (H&E) staining based assay; type: functional, organism-based; settings: dose 500.0 µg/kg
[12] = tested on: Mus musculus; experiment: Anti-fibrotic effect in CCl4-induced hepatic fibrosis C57BL/6 mouse model assessed as inhibition of serum total bile acid (TBA) level at 500 ug/kg, po five times a week for 2 weeks; type: functional, organism-based; settings: dose 500.0 µg/kg
[13] = tested on: Mus musculus; experiment: Anti-fibrotic effect in CCl4-induced hepatic fibrosis C57BL/6 mouse model assessed as reduction in hepatic fibrosis lesions at 500 ug/kg, po five times a week for 2 weeks by Masson's Trichrome staining based assay; type: functional, organism-based; settings: dose 500.0 µg/kg
[14] = tested on: Mus musculus; experiment: Anti-fibrotic effect in CCl4-induced hepatic fibrosis C57BL/6 mouse model assessed as decrease in inflammatory cell infiltration at 500 ug/kg, po five times a week for 2 weeks by Masson's Trichrome staining based assay; type: functional, organism-based; settings: dose 500.0 µg/kg
[15] = target: T1, Vitamin D3 receptor (Homo sapiens); experiment: Agonist activity at Vitamin D receptor in HEK293 cells assessed as receptor transactivation incubated for 48 hrs by dual-luciferase reporter assay; type: cell-based; settings: filed as agonist, dose 0.01-1 µM
[16] = tested on: Mus musculus; experiment: Anti-fibrotic effect in CCl4-induced hepatic fibrosis C57BL/6 mouse model assessed as decrease in inflammatory cell infiltration at 500 ug/kg, po five times a week for 2 weeks by Hematoxylin-Eosin (H&E) staining based assay; type: functional, organism-based; settings: dose 500.0 µg/kg
[17] = tested on: Mus musculus; experiment: Anti-fibrotic effect in CCl4-induced hepatic fibrosis C57BL/6 mouse model assessed as inhibition of serum ALT level at 500 ug/kg, po five times a week for 2 weeks; type: functional, organism-based; settings: dose 500.0 µg/kg
[18] = tested on: Mus musculus; experiment: Anti-fibrotic effect in CCl4-induced hepatic fibrosis C57BL/6 mouse model assessed as inhibition of collagen deposition at 500 ug/kg, po five times a week for 2 weeks by Masson's Trichrome […] staining based assay; type: functional, organism-based; settings: dose 500.0 µg/kg
[19] = tested on: Mus musculus; experiment: Anti-fibrotic effect in CCl4-induced hepatic fibrosis C57BL/6 mouse model assessed as inhibition of collagen deposition at 500 ug/kg, po five times a week for 2 weeks by Hematoxylin-Eosin (H&E) staining based assay; type: functional, organism-based; settings: dose 500.0 µg/kg

SMILES	RBA [1] [%]	IC50 [2] [µM]	also measured
COC(=O)CCCCCOc1cccc(COc2ccc(CO)c(CO)c2)c1	29.5	> 30	–
OCCCCCOc1cccc(/C=C/c2ccc(CO)c(CO)c2)c1	5.78	> 30	–
OCCCCOc1cccc(COc2ccc(CO)c(CO)c2)c1	–	> 30	RBA ([1]; filed as agonist): 41.6%
CC(O)CCCOc1cccc(/C=C/c2ccc(CO)c(CO)c2)c1 (stereo unspecified)	8.67	> 30	–
O=C(O)CCCOc1cccc(COc2ccc(CO)c(CO)c2)c1	9.25	> 30	–
CCC(O)(CC)CCCCCOc1cccc(COc2ccc(CO)c(CO)c2)c1	3.47	> 30	–
C=CCC(O)(CC=C)CCCOc1cccc(CCc2ccc(CO)c(CO)c2)c1	35.3	> 30	Activity [3]: inactive
CC(C)(O)CCCOc1cccc(CCc2ccc(CO)c(CO)c2)c1	14.4	> 30	Activity [3]: inactive
OCc1ccc(/C=C/c2cccc(OCCCN3CCOCC3)c2)cc1CO	34.1	> 30	–
CN1CCN(C(=O)CCCOc2cccc(COc3ccc(CO)c(CO)c3)c2)CC1	30.1	> 30	–
OCCCCCOc1cccc(COc2ccc(CO)c(CO)c2)c1	9.83	> 30	–
OCCCCOc1cccc(CCc2ccc(CO)c(CO)c2)c1	32.4	> 30	Activity [3]: inactive
OCc1ccc(/C=C/c2ccc(OCCCN3CCOCC3)cc2)cc1CO	32.4	> 30	–
CC(C)(O)CCCCOc1ccc(CCc2ccc(CO)c(CO)c2)cc1	11.6	> 30	Activity [3]: inactive
OCc1ccc(/C=C/c2cccc(OCCCC(O)(c3ccccc3)c3ccccc3)c2)cc1CO	23.7	> 30	–
OCCCCCOc1ccc(/C=C/c2ccc(CO)c(CO)c2)cc1	36.4	> 30	–
CCC(O)(CC)CCCCOc1ccc(CCc2ccc(CO)c(CO)c2)cc1	–	> 30	RBA ([1]; filed as agonist): 44.5%; Activity [3]: inactive
CCC(O)(CC)CCCOc1cccc(CCc2ccc(CO)c(CO)c2)c1	28.3	> 30	Activity [3]: inactive
CCC(O)(CC)CCCOc1cccc(/C=C/c2ccc(CO)c(CO)c2)c1	–	> 30	Activity [4]: Active; Activity [5]: Active; Activity [6]: Active; RBA ([1]; filed as agonist): 48%; Activity [7]: Active; Activity [8]: Active; Activity [9]: Active; Activity [10]: Active; Activity [11]: Active; Activity [12]: Active; Activity [13]: Active; Activity [14]: Active; Activity ([3]; filed as agonist): Active; Activity [15]: Dose-Dependent Effect; Activity [16]: Active; Activity [17]: Active; Activity [18]: Active; Activity [19]: Active
CCCC(Oc1ccc(CO)c(CO)c1)c1cccc(OCCCC(O)(CC)CC)c1 (stereo unspecified)	–	> 30	RBA ([1]; filed as agonist): 46.2%
CN1CCN(CCCOc2ccc(/C=C/c3ccc(CO)c(CO)c3)cc2)CC1	21.4	> 30	–
COC(=O)CCCOc1cccc(/C=C/c2ccc(CO)c(CO)c2)c1	34.1	> 30	–
CCN(CC)CCCOc1ccc(/C=C/c2ccc(CO)c(CO)c2)cc1	–	> 30	RBA ([1]; filed as agonist): 49.7%
CCn1c(C(=O)N[C@@H](C)CO)ccc1C(CC)(CC)c1ccc(OCC(O)C(C)(C)C)c(C)c1 (stereo partly specified)	–	–	Activity [5]: Active; Activity [6]: Active; Activity [7]: Active; Activity [8]: Active; Activity [9]: Active; Activity [10]: Active; Activity [11]: Active; Activity [13]: Active; Activity [14]: Active; Activity [16]: Active; Activity [18]: Active; Activity [19]: Active
CC(C)(O)CCCOc1cccc(/C=C/c2ccc(CO)c(CO)c2)c1	–	> 30	RBA ([1]; filed as agonist): 44.5%
OCc1ccc(/C=C/c2cccc(OCCCC(F)(F)F)c2)cc1CO	30.1	> 30	Activity ([3]; filed as agonist): Active
